Tested on: NCI-H929 complex spheroids, viability % test/control
Test: Anticancer human tumor NCI-H929 cell line growth inhibition [RAS];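 also: compound exposure lasted seven days before viability was read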;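 as to viability, T/C: 100% = DMSO vehicle control viability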
Settings: for IC50: curve of first compound; for viability, T/C: stronger effect = lower value
How it was run: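 Agents were tested in combination matrices in half-log decrements from a top concentration at or near clinical Cmax (10 microM if undetermined). Targets were multi-cell spheroids of tumour lines plus HUVEC and MSC stromal cells.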

In the case of `C=CC(=O)Nc1cc(Nc2nccc(-c3cn(C)c4ccccc34)n2)c(OC)cc1N(C)CCN(C)C` + C#Cc1c(F)ccc2cc(O)cc(-c3ncc4c(N5CC6CCC(C5)N6)nc(OCC56CCCN5CC(F)C6)nc4c3F)c12, the IC50 (second compound 0.0316 µM) is reported as > 1000 nM, the IC50 (second compound 0.1 µM) is reported as > 1000 nM and the IC50 (second compound 0.316 µM) is reported as > 1000 nM. For the same compound, the IC50 (second compound 1 µM) was > 1000 nM, the IC50 (second compound 3.16 µM) was > 1000 nM and the IC50 (second compound 10 µM) was > 1000 nM. It also gave a viability, T/C (second compound 0.0316 µM, first compound 0.00316 µM) of 101%, a viability, T/C (second compound 0.0316 µM, first compound 0.01 µM) of 94.1% and a viability, T/C (second compound 0.0316 µM, first compound 0.0316 µM) of 101%. The viability, T/C (second compound 0.0316 µM, first compound 0.1 µM) was 95.4%, the viability, T/C (second compound 0.0316 µM, first compound 0.316 µM) was 99.7% and the viability, T/C (second compound 0.0316 µM, first compound 1 µM) was 98.8%. The viability, T/C (second compound 0.1 µM, first compound 0.00316 µM) was 96.8%, the viability, T/C (second compound 0.1 µM, first compound 0.01 µM) was 97.5% and the viability, T/C (second compound 0.1 µM, first compound 0.0316 µM) was 102%. The viability, T/C (second compound 0.1 µM, first compound 0.1 µM) was 98.6%, the viability, T/C (second compound 0.1 µM, first compound 0.316 µM) was 101% and the viability, T/C (second compound 0.1 µM, first compound 1 µM) was 102%. For the same compound, the viability, T/C (second compound 0.316 µM, first compound 0.00316 µM) was 98.1%, the viability, T/C (second compound 0.316 µM, first compound 0.01 µM) was 101% and the viability, T/C (second compound 0.316 µM, first compound 0.0316 µM) was 103%. It also gave a viability, T/C (second compound 0.316 µM, first compound 0.1 µM) of 99.2%, a viability, T/C (second compound 0.316 µM, first compound 0.316 µM) of 104% and a viability, T/C (second compound 0.316 µM, first compound 1 µM) of 101%. For the same compound, the viability, T/C (second compound 1 µM, first compound 0.00316 µM) was 94%, the viability, T/C (second compound 1 µM, first compound 0.01 µM) was 97.2% and the viability, T/C (second compound 1 µM, first compound 0.0316 µM) was 106%. The viability, T/C (second compound 1 µM, first compound 0.1 µM) was 102%, the viability, T/C (second compound 1 µM, first compound 0.316 µM) was 102% and the viability, T/C (second compound 1 µM, first compound 1 µM) was 102%. For the same compound, the viability, T/C (second compound 3.16 µM, first compound 0.00316 µM) was 101%, the viability, T/C (second compound 3.16 µM, first compound 0.01 µM) was 97.8% and the viability, T/C (second compound 3.16 µM, first compound 0.0316 µM) was 103%. It also gave a viability, T/C (second compound 3.16 µM, first compound 0.1 µM) of 98.8%, a viability, T/C (second compound 3.16 µM, first compound 0.316 µM) of 102% and a viability, T/C (second compound 3.16 µM, first compound 1 µM) of 104%. For the same compound, the viability, T/C (second compound 10 µM, first compound 0.00316 µM) was 94%, the viability, T/C (second compound 10 µM, first compound 0.01 µM) was 98.8% and the viability, T/C (second compound 10 µM, first compound 0.0316 µM) was 94.8%. The viability, T/C (second compound 10 µM, first compound 0.1 µM) was 102%, the viability, T/C (second compound 10 µM, first compound 0.316 µM) was 99.1% and the viability, T/C (second compound 10 µM, first compound 1 µM) was 98.3%.

In the case of `C=CC(=O)N1CCN(c2nc(OCC3CCCN3C)nc3c(F)c(-c4nc(N)cc(C)c4C(F)(F)F)c(Cl)cc23)C(C)C1` (centres undefined) + CCn1c(-c2cccnc2C(C)OC)c2c3cc(ccc31)N1CCOC(CC(NC(=O)C(C(C)C)N(C)C(=O)C3(F)CCN(C(=O)C#CC(C)(C)N(C)C)CC3)C(=O)N3CCCC(N3)C(=O)OCC(C)(C)C2)C1, the IC50 (second compound 0.000949 µM) is reported as > 1000 nM, the IC50 (second compound 0.003 µM) is reported as > 1000 nM and the IC50 (second compound 0.00949 µM) is reported as > 1000 nM. The IC50 (second compound 0.03 µM) was > 1000 nM, the IC50 (second compound 0.0949 µM) was > 1000 nM and the IC50 (second compound 0.3 µM) was > 1000 nM. For the same compound, the viability, T/C (second compound 0.000949 µM, first compound 0.00316 µM) was 104%, the viability, T/C (second compound 0.000949 µM, first compound 0.01 µM) was 103% and the viability, T/C (second compound 0.000949 µM, first compound 0.0316 µM) was 103%. For the same compound, the viability, T/C (second compound 0.000949 µM, first compound 0.1 µM) was 104%, the viability, T/C (second compound 0.000949 µM, first compound 0.316 µM) was 102% and the viability, T/C (second compound 0.000949 µM, first compound 1 µM) was 105%. It also gave a viability, T/C (second compound 0.003 µM, first compound 0.00316 µM) of 104%, a viability, T/C (second compound 0.003 µM, first compound 0.01 µM) of 105% and a viability, T/C (second compound 0.003 µM, first compound 0.0316 µM) of 101%. The viability, T/C (second compound 0.003 µM, first compound 0.1 µM) was 102%, the viability, T/C (second compound 0.003 µM, first compound 0.316 µM) was 107% and the viability, T/C (second compound 0.003 µM, first compound 1 µM) was 104%. It also gave a viability, T/C (second compound 0.00949 µM, first compound 0.00316 µM) of 104%, a viability, T/C (second compound 0.00949 µM, first compound 0.01 µM) of 101% and a viability, T/C (second compound 0.00949 µM, first compound 0.0316 µM) of 106%. For the same compound, the viability, T/C (second compound 0.00949 µM, first compound 0.1 µM) was 107%, the viability, T/C (second compound 0.00949 µM, first compound 0.316 µM) was 106% and the viability, T/C (second compound 0.00949 µM, first compound 1 µM) was 105%. It also gave a viability, T/C (second compound 0.03 µM, first compound 0.00316 µM) of 102%, a viability, T/C (second compound 0.03 µM, first compound 0.01 µM) of 99.7% and a viability, T/C (second compound 0.03 µM, first compound 0.0316 µM) of 106%. It also gave a viability, T/C (second compound 0.03 µM, first compound 0.1 µM) of 105%, a viability, T/C (second compound 0.03 µM, first compound 0.316 µM) of 106% and a viability, T/C (second compound 0.03 µM, first compound 1 µM) of 107%. For the same compound, the viability, T/C (second compound 0.0949 µM, first compound 0.00316 µM) was 102%, the viability, T/C (second compound 0.0949 µM, first compound 0.01 µM) was 103% and the viability, T/C (second compound 0.0949 µM, first compound 0.0316 µM) was 106%. It also gave a viability, T/C (second compound 0.0949 µM, first compound 0.1 µM) of 104%, a viability, T/C (second compound 0.0949 µM, first compound 0.316 µM) of 107% and a viability, T/C (second compound 0.0949 µM, first compound 1 µM) of 104%. The viability, T/C (second compound 0.3 µM, first compound 0.00316 µM) was 102%, the viability, T/C (second compound 0.3 µM, first compound 0.01 µM) was 104% and the viability, T/C (second compound 0.3 µM, first compound 0.0316 µM) was 106%. For the same compound, the viability, T/C (second compound 0.3 µM, first compound 0.1 µM) was 107%, the viability, T/C (second compound 0.3 µM, first compound 0.316 µM) was 107% and the viability, T/C (second compound 0.3 µM, first compound 1 µM) was 103%.

Reference: PubChem BioAssay AID2060884 (Molecular Pharmacology Branch, DTP, NCI, 2025)
